Numbered stars: 1 amine (or outer) side, 2 acyl side, 3 side chain; on linkers, the order of the positions; unused ones are H or OH. Side chains are listed from the residue outwards. Peptide text beside a SMILES is read from it. * marks the point of attachment. Decanoyl(10-(4-HOOC-PhO)) = O=C(O)c1ccc(OCCCCCCCCCC(=O)*)cc1; γGlu = O=C(O)[C@H](CCC(=O)[*:2])N[*:1]; C14 diacid = O=C(O)CCCCCCCCCCCCC(=O)*; AEEA = NCCOCCOCC(=O)O
Experiment: Estimate of oral bioavailability: gut injection in rat (caprate), exposure in plasma
Assay type: in vivo
Settings: injection in jejunum, 1000 uM in 55 mg/ml sodium caprate, plasma concentration (pM) at 30 min divided by dosing solution concentration (μM), mean n=4
Description: The GLP-1 derivatives were tested in a concentration of 1000 uM in a solution of 55 mg/ml sodium caprate.
Male Sprague Dawley rats with a body weight upon arrival of approximately 240 g were obtained from Taconic (Denmark) and assigned to the different treatments by simple randomisation, 4 rats per group.
The GLP-1 derivatives were administered in the jejunum either in the proximal part (10 cm distal for the duodenum) or in the mid-intestine (50 cm proximal for the cecum). A PE50-catheter, 10 cm long was inserted into the jejunum, forwarded at least 1.5 cm into the jejunum, and secured before dosing by ligature around the gut and the catheter with 3/0 suture distal to tip to prevent leak or catheter displacement. Catheter was placed without syringe and needle and 2 ml saline was administered into abdomen before closing the incision with wound clips.
100 μl of the respective GLP-1 derivative was injected into the jejunal lumen through the catheter with a 1 ml syringe. Subsequently, 200 μl of air was pushed into the jejunal lumen with another syringe to “flush” the catheter. This syringe was leaved connected to the catheter to prevent flow back into the catheter.
Blood samples (200 ul) were collected at desired intervals (usually at times 0, 10, 30, 60, 120 and 240 min) into EDTA tubes from the tail vein and centrifuged 5 minutes, 10000G, at 4° C. within 20 minutes. […] 12, p. 240-247. The donor beads were coated with streptavidin, while acceptor beads were conjugated with a monoclonal antibody recognising a mid-/C-terminal epitope of the peptide. Another monoclonal antibody, specific for the N-terminus, was biotinylated. The three reactants were combined with the analyte and formed a two-sited immuno-complex. Illumination of the complex released singlet oxygen atoms from the donor beads, which were channeled into the acceptor beads and triggered chemiluminescence which was measured in an Envision plate reader. The amount of light was proportional to the concentration of the compound.
After the blood sampling the rats were sacrificed under anaesthesia and the abdomen was opened to verify correct catheter placement.
The mean (n=4) plasma concentrations (pmol/l) were determined as a function of time.

| SMILES | Dose-corrected exposure at 30 min |
| --- | --- |
| CC[C@H](C)[C@H](NC(=O)[C@H](Cc1ccccc1)NC(=O)[C@H](CCCCNC(=O)COCCOCCNC(=O)COCCOCCNC(=O)CC[C@H](NC(=O)CCCCCCCCCOc1ccc(C(=O)O)cc1)C(=O)O)NC(=O)[C@H](CCCNC(=N)N)NC(=O)[C@@H](NC(=O)[C@H](C)NC(=O)[C@H](CCC(N)=O)NC(=O)CNC(=O)[C@H](CCC(=O)O)NC(=O)[C@H](CC(C)C)NC(=O)[C@H](Cc1ccc(O)cc1)NC(=O)[C@H](CO)NC(=O)[C@H](CO)NC(=O)[C@@H](NC(=O)[C@H](CC(=O)O)NC(=O)[C@H](CO)NC(=O)[C@@H](NC(=O)[C@H](Cc1ccccc1)NC(=O)[C@@H](NC(=O)CNC(=O)[C@H](CCC(=O)O)NC(=O)[C@H](C)NC(=O)[C@@H](N)Cc1c[nH]cn1)[C@@H](C)O)[C@@H](C)O)C(C)C)C(C)C)C(=O)N[C@@H](CCC(=O)O)C(=O)N[C@@H](Cc1c[nH]c2ccccc12)C(=O)N[C@@H](CC(C)C)C(=O)N[C@H](C(=O)N[C@@H](CCCNC(=N)N)C(=O)NCC(=O)N[C@@H](CCCCNC(=O)COCCOCCNC(=O)COCCOCCNC(=O)CC[C@H](NC(=O)CCCCCCCCCOc1ccc(C(=O)O)cc1)C(=O)O)C(=O)NCC(=O)N[C@@H](CCC(N)=O)C(=O)O)C(C)C [Example 12, N^α(N^ε27-[2-[2-[2-[[2-[2-[2-[[(4S)-4-carboxy-4-[10-(4-carboxyphenoxy)decanoylamino]butanoyl]amino]ethoxy]ethoxy]acetyl]amino]ethoxy]ethoxy]acetyl], N^ε36-[2-[2-[2-[[2-[2-[2-[[(4S)-4-carboxy-4-[10-(4-carboxyphenoxy)decanoylamino]butanoyl]amino]ethoxy]ethoxy]acetyl]amino]ethoxy]ethoxy]acetyl]-[Val^25,Arg^26,Lys^27,Glu^30,Arg^34,Lys^36]-GLP-1-(7-37)-peptidyl)-Gln] (H-HAEGTFTSDVSSYLEGQAVRK([AEEA-AEEA-γGlu-Decanoyl(10-(4-HOOC-PhO))])FIEWLVRGK([AEEA-AEEA-γGlu-Decanoyl(10-(4-HOOC-PhO))])GQ-OH; N-terminus and C-terminus assumed) | 68 |
| CC[C@H](C)[C@H](NC(=O)[C@H](Cc1ccccc1)NC(=O)[C@H](CCCCNC(=O)COCCOCCNC(=O)COCCOCCNC(=O)CC[C@H](NC(=O)CCCCCCCCCCCCC(=O)O)C(=O)O)NC(=O)[C@H](CCCNC(=N)N)NC(=O)[C@@H](NC(=O)[C@H](C)NC(=O)[C@H](CCC(N)=O)NC(=O)[C@H](CCCCNC(=O)COCCOCCNC(=O)COCCOCCNC(=O)CC[C@H](NC(=O)CCCCCCCCCCCCC(=O)O)C(=O)O)NC(=O)[C@H](CCC(=O)O)NC(=O)[C@H](CC(C)C)NC(=O)[C@H](Cc1ccc(O)cc1)NC(=O)[C@H](CO)NC(=O)[C@H](CO)NC(=O)[C@@H](NC(=O)[C@H](CC(=O)O)NC(=O)[C@H](CO)NC(=O)[C@@H](NC(=O)[C@H](Cc1ccccc1)NC(=O)[C@@H](NC(=O)CNC(=O)[C@H](CCC(=O)O)NC(=O)[C@H](C)NC(=O)[C@@H](N)Cc1c[nH]cn1)[C@@H](C)O)[C@@H](C)O)C(C)C)C(C)C)C(=O)N[C@@H](CCC(=O)O)C(=O)N[C@@H](Cc1c[nH]c2ccccc12)C(=O)N[C@@H](CC(C)C)C(=O)N[C@H](C(=O)N[C@@H](CCC(N)=O)C(=O)NCC(=O)N[C@@H](CCCNC(=N)N)C(=O)NCC(=O)O)C(C)C [Example 11, N^ε22-[2-[2-[2-[[2-[2-[2-[[(4S)-4-carboxy-4-(13-carboxytridecanoylamino)butanoyl]amino]ethoxy]ethoxy]acetyl]amino]ethoxy]ethoxy]acetyl], N^ε27-[2-[2-[2-[[2-[2-[2-[[(4S)-4-carboxy-4-(13-carboxytridecanoylamino)butanoyl]amino]ethoxy]ethoxy]acetyl]amino]ethoxy]ethoxy]acetyl]-[Lys^22,Val^25,Arg^26,Lys^27,Glu^30,Gln^34]-GLP-1-(7-37)-peptide] (H-HAEGTFTSDVSSYLEK([AEEA-AEEA-γGlu-C14 diacid])QAVRK([AEEA-AEEA-γGlu-C14 diacid])FIEWLVQGRG-OH; N-terminus and C-terminus assumed) | 66 |
| CC[C@H](C)[C@H](NC(=O)[C@H](Cc1ccccc1)NC(=O)[C@H](CCCCNC(=O)COCCOCCNC(=O)COCCOCCNC(=O)CC[C@H](NC(=O)CCCCCCCCCOc1ccc(C(=O)O)cc1)C(=O)O)NC(=O)[C@H](CCCNC(=N)N)NC(=O)[C@H](C)NC(=O)[C@H](C)NC(=O)[C@H](CCC(N)=O)NC(=O)CNC(=O)[C@H](CCC(=O)O)NC(=O)[C@H](CC(C)C)NC(=O)[C@H](Cc1ccc(O)cc1)NC(=O)[C@H](CO)NC(=O)[C@H](CO)NC(=O)[C@@H](NC(=O)[C@H](CC(=O)O)NC(=O)[C@H](CO)NC(=O)[C@@H](NC(=O)[C@H](Cc1ccccc1)NC(=O)[C@@H](NC(=O)CNC(=O)[C@H](CCC(=O)O)NC(=O)[C@H](C)NC(=O)[C@@H](N)Cc1c[nH]cn1)[C@@H](C)O)[C@@H](C)O)C(C)C)C(=O)N[C@@H](CCC(=O)O)C(=O)N[C@@H](Cc1c[nH]c2ccccc12)C(=O)N[C@@H](CC(C)C)C(=O)N[C@H](C(=O)N[C@@H](CCCNC(=N)N)C(=O)NCC(=O)N[C@@H](CCCCNC(=O)COCCOCCNC(=O)COCCOCCNC(=O)CC[C@H](NC(=O)CCCCCCCCCOc1ccc(C(=O)O)cc1)C(=O)O)C(=O)NCC(=O)N[C@@H](CCC(=O)O)C(=O)O)C(C)C [Example 6, N^ε27-[2-[2-[2-[[2-[2-[2-[[(4S)-4-carboxy-4-[10-(4-carboxyphenoxy)decanoylamino]butanoyl]amino]ethoxy]ethoxy]acetyl]amino]ethoxy]ethoxy]acetyl], N^ε36-[2-[2-[2-[[2-[2-[2-[[(4S)-4-carboxy-4-[10-(4-carboxyphenoxy)decanoylamino]butanoyl]amino]ethoxy]ethoxy]acetyl]amino]ethoxy]ethoxy]acetyl]-[Arg^26,Lys^27,Glu^30,Arg^34,Lys^36]-GLP-1-(7-37)-peptidyl-Glu] (H-HAEGTFTSDVSSYLEGQAARK([AEEA-AEEA-γGlu-Decanoyl(10-(4-HOOC-PhO))])FIEWLVRGK([AEEA-AEEA-γGlu-Decanoyl(10-(4-HOOC-PhO))])GE-OH; N-terminus and C-terminus assumed) | 93 |
| CC[C@H](C)[C@H](NC(=O)[C@H](Cc1ccccc1)NC(=O)[C@H](CCCCNC(=O)CC[C@H](NC(=O)COCCOCCNC(=O)COCCOCCNC(=O)CCCCCCCCCCCCC(=O)O)C(=O)O)NC(=O)[C@H](CCCNC(=N)N)NC(=O)[C@H](C)NC(=O)[C@H](CCCCNC(=O)CC[C@H](NC(=O)COCCOCCNC(=O)COCCOCCNC(=O)CCCCCCCCCCCCC(=O)O)C(=O)O)NC(=O)[C@H](CCC(N)=O)NC(=O)[C@H](CCC(=O)O)NC(=O)[C@H](CCC(=O)O)NC(=O)[C@H](CC(C)C)NC(=O)[C@H](Cc1ccc(O)cc1)NC(=O)[C@H](CO)NC(=O)[C@H](CO)NC(=O)[C@@H](NC(=O)[C@H](CC(=O)O)NC(=O)[C@H](CO)NC(=O)[C@@H](NC(=O)[C@H](Cc1ccccc1)NC(=O)[C@@H](NC(=O)CNC(=O)[C@H](CCC(=O)O)NC(=O)[C@H](C)NC(=O)[C@@H](N)Cc1c[nH]cn1)[C@@H](C)O)[C@@H](C)O)C(C)C)C(=O)N[C@@H](C)C(=O)N[C@@H](Cc1c[nH]cn1)C(=O)N[C@@H](CC(C)C)C(=O)N[C@H](C(=O)NCC(=O)O)C(C)C [Example 22, N^ε24-[(4S)-4-carboxy-4-[[2-[2-[2-[[2-[2-[2-(13-carboxytridecanoylamino)ethoxy]ethoxy]acetyl]amino]ethoxy]ethoxy]acetyl]amino]butanoyl], N^ε27-[(4S)-4-carboxy-4-[[2-[2-[2-[[2-[2-[2-(13-carboxytridecanoylamino)ethoxy]ethoxy]acetyl]amino]ethoxy]ethoxy]acetyl]amino]butanoyl]-[Glu^22,Lys^24,Arg^26,Lys^27,His^31,Gly^34]-GLP-1-(7-34)-peptide] (H-HAEGTFTSDVSSYLEEQK([γGlu-AEEA-AEEA-C14 diacid])ARK([γGlu-AEEA-AEEA-C14 diacid])FIAHLVG-OH) | 275 |

From patent US11117947B2, “Double-acylated GLP-1 derivatives” (Novo Nordisk A/S, priority 2011, dated 2021)
